By GI50 is commonly meant the concentration that inhibits growth by half.

Test [1] relates to M14. The experiment in a line: NCI-60 growth inhibition, M14. It is filed as cell-based. The settings on record: Homo sapiens, Melanoma. An excerpt:
(§1) Compound 4 had better potency than the lead compound 1 in 50 cancer cell lines. (better by 5 to 6-fold in leukemia, 2 to 17-fold in NSCLC, 2 to 6-fold in colon cancer, 2 to 5-fold in CNS cancer, 2 to 25-fold in melanoma, 2 to 5-fold in ovarian cancer, 2 to 9-fold in renal cancer, 2 to 5-fold in prostate cancer, and 2 to 6-fold in breast cancer compared to lead compound 1).

Test [2] relates to HeLa WTβIII cells. The experiment in a line: SRB assay in βIII-tubulin expressing HeLa WTβIII cells. The settings on record: Homo sapiens, read-out: IC50 ± SD in HeLa WTβ3. It is filed as cell-based. The procedure: Compounds 4–8, 10, 12, and 13 were evaluated for their abilities to overcome βIII-tubulin mediated drug resistance using an isogenic HeLa cell line pair (Table 4). […] The Rr values (Table 4) were calculated by dividing the IC50 of the βIII-tubulin expressing line by the IC50 obtained in the parental HeLa cells.
(§2) The antiproliferative and cytotoxic effects of the compounds in cancer cells were evaluated using the SRB assay as previously described. MDA-MB-435 cells were obtained from the Lombardi Cancer Center of Georgetown University (Washington, DC, USA). SK-OV-3 and HeLa cells were purchased from ATCC. Details about the generation of the SK-OV-3 MDR1-M6/6 and HeLa WTβIII cells were described previously. The IC50 values represent an average of three independent experiments, each conducted using triplicate points.
(§3) HeLa, A-10, SK-OV-3, and SK-OV-3 MDR1-M6/6 cells were grown in Basal Medium Eagle (Sigma-Aldrich, St. Louis, MO, USA) supplemented with 10% FBS (Hyclone, GE Life Sciences, Logan, UT, USA) 1% GlutaMAX (Gibco, Life Technologies, Waltham, MA, USA) and 50 µg/mL gentamycin (Life Technologies, USA). HeLa WTβIII cells were grown in Dulbecco’s Modified Eagle Medium (Life Technologies) supplemented with 10% FBS and 50 µg/mL gentamycin. MDA-MB-435 cells were maintained in Improved Minimum Essential Medium (Life Technologies) supplemented with 10% FBS and 25 µg/mL gentamycin. All cells were grown at 37 °C in a humidified environment with 5% CO2.

The subject of test [3] is MDA-MB-435. Description: NCI-60 growth inhibition, MDA-MB-435. It is filed as cell-based. The settings on record: Homo sapiens, Melanoma.
Text: as §1

Test [4] deals with OVCAR-3. The experiment in a line: NCI-60 growth inhibition, OVCAR-3. It is filed as cell-based. Conditions: Homo sapiens, Ovarian Cancer.
Text: as §1

In test [5] the test system is UACC-257. Description: NCI-60 growth inhibition, UACC-257. It is filed as cell-based. The settings on record: Homo sapiens, Melanoma.
Text: as §1

Test [6] relates to SN12C. Description: NCI-60 growth inhibition, SN12C. The settings on record: Homo sapiens, Renal Cancer. It is filed as cell-based.
Text: as §1

Test [7] concerns HOP-62. Description: NCI-60 growth inhibition, HOP-62. It is filed as cell-based. The settings on record: Homo sapiens, NSCLC.
Text: as §1

Test [8] concerns COLO 205. Description: NCI-60 growth inhibition, COLO 205. It is filed as cell-based. Conditions: Homo sapiens, Colon Cancer.
Text: as §1

Test [9] relates to CCRF-CEM. Description: NCI-60 growth inhibition, CCRF-CEM. It is filed as cell-based. The settings on record: Homo sapiens, Leukemia.
Text: as §1

Test [10] relates to HS 578T. Description: NCI-60 growth inhibition, HS 578T. It is filed as cell-based. Conditions: Homo sapiens, Breast Cancer.
Text: as §1

For test [11], the system named is BT-549. The experiment in a line: NCI-60 growth inhibition, BT-549. It is filed as cell-based. Conditions: Homo sapiens, Breast Cancer.
Text: as §1

For test [12], the system named is SK-OV-3 MDR1-M6/6 cells. Description: SRB assay in Pgp-expressing SK-OV-3 MDR1-M6/6 cells. It is filed as cell-based. The settings on record: Homo sapiens, SKOV3-MDR1-M6/6, read-out: IC50 ± SD in SK-OV-3 MDR1-M6/6 Cells. The procedure:
Comparison of the IC50 values in the parental SK-OV-3 and genetically manipulated SK-OV-3 MDR1-M6/6 cell line allows for the calculation of a relative resistance value, designated Rr. This value is calculated by dividing the IC50 value obtained in the Pgp-expressing SK-OV-3 MDR1-M6/6 cells by the IC50 obtained in the parental SK-OV-3 cells.
as §2, §3
For orientation: The SRB assay estimates cell density from bound dye.

Test [13] deals with NCI/ADR-RES. The experiment in a line: NCI-60 growth inhibition, NCI/ADR-RES. It is filed as cell-based. The settings on record: Homo sapiens, Ovarian Cancer.
Text: as §1

Test [14] concerns NCI-H23. Description: NCI-60 growth inhibition, NCI-H23. The settings on record: Homo sapiens, NSCLC. It is filed as cell-based.
Text: as §1

The test system of test [15] is tubulin. The experiment in a line: Inhibition of [3H]colchicine binding to tubulin. The settings on record: compound at 5 μM, 5.0 µM [3H]colchicine, 1.0 µM tubulin. The arrangement: species or system Bovine. The procedure:
Bovine brain tubulin was purified as described previously. The tubulin assembly assay has been described in detail. Briefly, 1.0 mg/mL of tubulin (10 µM) was preincubated for 15 min at 30 °C in 0.8 M monosodium glutamate (pH of 2 M stock solution adjusted to 6.6 with HCl), varying compound concentrations and 4% (v/v) DMSO as compound solvent. After the preincubation, the reaction mixtures were placed on ice and 0.4 mM GTP was added. The reaction mixtures were transferred to cuvettes at 0 °C in a recording spectrophotometer equipped with an electronic temperature controller. After baselines were established, the temperature was elevated over about 30 s to 30 °C, and changes in turbidity were monitored at 350 nm for 20 min. The compound concentration that caused a 50% reduction in increase in turbidity, interpolated from the values obtained with defined compound concentrations, was defined as the IC50 value. The assay to measure inhibition of [^3H]colchicine binding was described in detail previously. Briefly, 0.1 mg/mL (1.0 µM) tubulin was incubated at 37 °C with 5.0 µM [3H]colchicine and potential inhibitors at 5.0 µM. […] The [^3H]colchicine was a product of PerkinElmer, USA.

Test [16] relates to A549/ATCC. Description: NCI-60 growth inhibition, A549/ATCC. It is filed as cell-based. Conditions: Homo sapiens, NSCLC.
Text: as §1

On to `COc1ccc(N(C)c2nc(N)nc3sc4c(c23)CCCC4)cc1` [Compound 4, N4-(4-methoxyphenyl)-N4-methyl-5,6,7,8-tetrahydrobenzo[4,5]thieno[2,3-d]pyrimidine-2,4-diamine], for which the GI50 in [1] was determined as 4.32 nM; in test [3] it was 4.89 nM; in test [4], 17.1 nM; in test [5] it was 18.4 nM; in test [6], 14.4 nM; in [7], 17.7 nM. Besides, the GI50 came out at 10.8 nM in [8]; 7.12 nM in test [9]; 13.5 nM in test [10]; 17.5 nM in test [11]; 6.19 nM in test [13]; 11.3 nM in test [14]. In addition, the GI50 in [16] was 12 nM. Moreover, the figures for the IC50 in test [2] and in test [12] were 10.6 ± 1.8 nM and 17.5 ± 0.8 nM, respectively. The “Inhibition of Colchicine Binding (% inhibition ± SD)” value in test [15] is 99.0 ± 1.0%.

The record behind these values is paper PMC8747035, “Design, Synthesis, and Biological Evaluation of 5,6,7,8-Tetrahydrobenzo[4,5]thieno[2,3-d]pyrimidines as Microtubule Targeting Agents” (Molecules, 2022).
